In US11236087B2, “Highly active pyrazolo-piperidine substituted indole-2-carboxamides active against the hepatitis B virus (HBV)” (AiCuris GmbH & Co. KG, priority 2017, dated 2022):

Key:
HBV core protein = molecular target: T1, HBV core protein (UniProt P03146); assay: Biochemical capsid assembly assay (fluorescence quenching); parameters: species or system hepatitis B virus; conditions: read-out: Assembly Activity (IC50); BODIPY-FL labelled core protein, 300 μM NaCl, read 6 min after start
T1 construct: fused on or other part: BODIPY-FL maleimide label on the C-terminal Cys150
Procedure, shortened: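 Assembly-induced fluorescence quenching (477/525 nm) was measured 6 min after NaCl addition ([…]), against 2.5 M and 0 M NaCl controls. The labelled C150 core dimer (truncated at 149) at 1.0-2.0 μM in HEPES pH 7.5 was tested with eight half-log compound dilutions, top 100, 31.6 or 10 μM. EC50 was obtained by non-linear fit from triplicates run three times.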

HBV = assay: Determination of HBV DNA from the supernatants of HepAD38 cells (anti-HBV activity); assay type: cell-based, hepatitis B virus; conditions: Hepatitis B virus, 144 h; HBV DNA in HepAD38 supernatant, day 6, qPCR; read-out: Cell Activity (EC50)
Procedure, shortened: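 Supernatant viral DNA was measured by LightCycler qPCR, calibrated with pCH-9/3091 plasmid, 6 days after tetracycline-free HepAD38 cultures received half-log serial compound dilutions; untreated and tetracycline-treated cells served as controls; EC50 was fitted by non-linear regression.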

[1] = Cell viability assay (AlamarBlue) in HepAD38 cells; conditions: human

T1 sequence (P03146 whole entry, looked up, the tested form may be a part): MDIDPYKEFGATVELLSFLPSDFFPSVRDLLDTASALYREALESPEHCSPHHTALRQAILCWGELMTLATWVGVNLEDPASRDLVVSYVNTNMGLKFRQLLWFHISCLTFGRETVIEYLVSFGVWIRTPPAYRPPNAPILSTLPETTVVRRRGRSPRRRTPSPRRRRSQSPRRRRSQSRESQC

Row | Structure (SMILES) | IC50 (HBV core protein) | EC50 (HBV) | CC50 at 6 days [1]
1 | CN(Cc1ccccc1)C(=O)c1n[nH]c2c1CN(C(=O)c1cc3ccccc3[nH]1)CC2 [Example 178, N-benzyl-5-(1H-indole-2-carbonyl)-N-methyl-1H4H,5H,6H,7H-pyrazolo[4,3-c]pyridine-3-carboxamide] | < 5 µM | < 1 µM | > 10 µM
2 | O=C(c1cc2ccccc2[nH]1)N1CCc2[nH]nc(C(=O)N3CCC[C@H]3CO)c2C1 [Example 180, [(2S)-1-[5-(1H-indole-2-carbonyl)-1H,4H,5H,6H,7H-pyrazolo[4,3-c]pyridine-3-carbonyl]pyrrolidin-2-yl]methanol] | < 100 µM | 1 to 25 µM | > 10 µM
3 | O=C(c1cc2ccccc2[nH]1)N1CCc2[nH]nc(C(=O)N3Cc4cn[nH]c4C3)c2C1 [Example 181, 2-(3-{1H,4H,5H,6H-pyrrolo[3,4-c]pyrazole-5-carbonyl}-1H,4H,5H,6H,7H-pyrazolo[4,3-c]pyridine-5-carbonyl)-1H-indole] | 5 to 10 µM | 1 to 25 µM | > 10 µM
4 | O=C(c1cc2ccccc2[nH]1)N1CCc2[nH]nc(C(=O)N3CCCC34CC4)c2C1 [Example 184, 2-(3-{4-azaspiro[2.4]heptane-4-carbonyl}-1H,4H,5H,6H,7H-pyrazolo[4,3-c]pyridine-5-carbonyl)-1H-indole] | < 5 µM | < 1 µM | > 10 µM
5 | CCN(C(=O)c1n[nH]c2c1CN(C(=O)c1cc3ccccc3[nH]1)CC2)C1COC1 [Example 185, N-ethyl-5-(1H-indole-2-carbonyl)-N-(oxetan-3-yl)-1H,4H,5H,6H,7H-pyrazolo[4,3-c]pyridine-3-carboxamide] | 5 to 10 µM | < 1 µM | > 10 µM
6 | CN(C(=O)c1n[nH]c2c1CN(C(=O)c1cc3ccccc3[nH]1)CC2)C1COC1 [Example 188, 5-(1H-indole-2-carbonyl)-N-methyl-N-(oxetan-3-yl)-1H,4H,5H,6H,7H-pyrazolo[4,3-c]pyridine-3-carboxamide] | 5 to 10 µM | < 1 µM | > 10 µM
7 | CN(C(=O)c1n[nH]c2c1CN(C(=O)c1cc3ccccc3[nH]1)CC2)C1CCOC1 (stereo not drawn) [Example 189, 5-(1H-indole-2-carbonyl)-N-methyl-N-(oxolan-3-yl)-1H4H,5H,6H,7H-pyrazolo[4,3-c]pyridine-3-carboxamide] | < 100 µM | 1 to 25 µM | > 10 µM
8 | O=C(c1cc2ccccc2[nH]1)N1CCc2[nH]nc(C(=O)N3CCC(F)(F)CC3)c2C1 [Example 190, 2-[3-(4,4-difluoropiperidine-1-carbonyl)-1H,4H,5H,6H,7H-pyrazolo[4,3-c]pyridine-5-carbonyl]-1H-indole] | < 5 µM | < 1 µM | > 10 µM
9 | CC(C)(C)OC(=O)N[C@@H]1CCN(C(=O)c2n[nH]c3c2CN(C(=O)c2cc4ccccc4[nH]2)CC3)C1 [Example 191, tert-butyl N-[(3R)-1-[5-(1H-indole-2-carbonyl)-1H,4H,5H,6H,7H-pyrazolo[4,3-c]pyridine-3-carbonyl]pyrrolidin-3-yl]carbamate] | < 5 µM | 1 to 25 µM | > 10 µM
10 | CN(C(=O)c1n[nH]c2c1CN(C(=O)c1cc3ccccc3[nH]1)CC2)C1CCCOC1 (stereo not drawn) [Example 193, 5-(1H-indole-2-carbonyl)-N-methyl-N-(oxan-3-yl)-1H,4H,5H,6H,7H-pyrazolo[4,3-c]pyridine-3-carboxamide] | < 100 µM | 1 to 25 µM | > 10 µM
11 | CC(C)(C)OC(=O)N[C@H]1CCN(C(=O)c2n[nH]c3c2CN(C(=O)c2cc4ccccc4[nH]2)CC3)C1 [Example 194, tert-butyl N-[(3S)-1-[5-(1H-indole-2-carbonyl)-1H,4H,5H,6H,7H-pyrazolo[4,3-c]pyridine-3-carbonyl]pyrrolidin-3-yl]carbamate] | < 100 µM | 1 to 25 µM | > 10 µM
